Assay results published in patent US8802597B2, “Herbicidal pyrimidines” (E I du Pont de Nemours and Company, priority 2003, dated 2014).

Assays:
Test in all cases: Test C pre/postemergence
Format in all cases: in vivo
[1] = test system: cocklebur (Xanthium strumarium); conditions: for Cocklebur plant response rating: scale 0 to 100 (0 no effect, 100 complete control)
In short: (§1)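 Applications: preemergence onto seeded soil and postemergence onto 1- to 4-leaf seedlings, compound carried in non-phytotoxic solvent plus surfactant. Kept in greenhouse 12 to 14 days. Scored visually relative to untreated controls, 0 (no effect) to 100 (complete control).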

[2] = test system: yellow nutsedge (Cyperus esculentus); conditions: for Nutsedge, Yellow plant response rating: scale 0 to 100 (0 no effect, 100 complete control)
In short: as §1

[3] = test system: Surinam grass (Brachiaria decumbens); conditions: for Surinam Grass plant response rating: scale 0 to 100 (0 no effect, 100 complete control)
In short: as §1

[4] = test system: pigweed (Amaranthus retroflexus); conditions: for Pigweed plant response rating: scale 0 to 100 (0 no effect, 100 complete control)
In short: as §1

[5] = test system: common (oilseed) sunflower (Helianthus annuus); conditions: Preemergence
In short: as §1

[6] = test system: woolly cupgrass (Eriochloa villosa); conditions: for Cupgrass, Woolly plant response rating: scale 0 to 100 (0 no effect, 100 complete control)
In short: as §1

kochia (Kochia scoparia) = conditions: for Kochia plant response rating: scale 0 to 100 (0 no effect, 100 complete control)
In short: as §1

[7] = test system: morningglory (Ipomoea coccinea); conditions: for Morningglory plant response rating: scale 0 to 100 (0 no effect, 100 complete control)
In short: as §1

[8] = test system: johnsongrass (Sorghum halepense)
In short: as §1

[9] = test system: giant foxtail (Setaria faberii); conditions: for Foxtail, Giant plant response rating: scale 0 to 100 (0 no effect, 100 complete control)
In short: as §1

[10] = test system: crabgrass (Digitaria sanguinalis); conditions: for Crabgrass plant response rating: scale 0 to 100 (0 no effect, 100 complete control)
In short: as §1

[11] = test system: velvetleaf (Abutilon theophrasti); conditions: for Velvetleaf plant response rating: scale 0 to 100 (0 no effect, 100 complete control)
In short: as §1

[12] = Preemergence, 31 g ai/ha, scale 0 to 100, 0 no effect, 100 complete control
[13] = Preemergence, 62 g ai/ha, scale 0 to 100, 0 no effect, 100 complete control
[14] = Preemergence, 125 g ai/ha, scale 0 to 100
[15] = Preemergence, 250 g ai/ha, scale 0 to 100
[16] = 62 g ai/ha, scale 0 to 100, 0 no effect, 100 complete control
[17] = Postemergence, 250 g ai/ha, scale 0 to 100
[18] = Postemergence, 500 g ai/ha, scale 0 to 100
[19] = Preemergence, 500 g ai/ha, scale 0 to 100

## CCOC(=O)C(Cl)c1nc(C2CC2)nc(N)c1Br (centres unmarked) [Compound 31]
[1]; [12]
  Plant response rating, Cocklebur: 0
[1]; [13]
  Plant response rating, Cocklebur: 60
[1]; [14]
  Plant response rating, Cocklebur: 75
[1]; [15]
  Plant response rating, Cocklebur: 85
[2]; [12]
  Plant response rating, Nutsedge, Yellow: 0
[2]; [13]
  Plant response rating, Nutsedge, Yellow: 0
[2]; [14]
  Plant response rating, Nutsedge, Yellow: 0
[2]; [15]
  Plant response rating, Nutsedge, Yellow: 0
[3]; [12]
  Plant response rating, Surinam Grass: 0
[3]; [13]
  Plant response rating, Surinam Grass: 0
[3]; [14]
  Plant response rating, Surinam Grass: 0
[3]; [15]
  Plant response rating, Surinam Grass: 0
[4]; [12]
  Plant response rating, Pigweed: 10
[4]; [13]
  Plant response rating, Pigweed: 30
[4]; [14]
  Plant response rating, Pigweed: 35
[4]; [15]
  Plant response rating, Pigweed: 40
[5]; 31 g ai/ha, scale 0 to 100, 0 no effect, 100 complete control
  Plant response rating, Sunflower: 0
[5]; [16]
  Plant response rating, Sunflower: 0
[5]; 125 g ai/ha, scale 0 to 100
  Plant response rating, Sunflower: 5
[5]; 250 g ai/ha, scale 0 to 100
  Plant response rating, Sunflower: 70
[6]; [12]
  Plant response rating, Cupgrass, Woolly: 0
[6]; [13]
  Plant response rating, Cupgrass, Woolly: 0
[6]; [14]
  Plant response rating, Cupgrass, Woolly: 0
[6]; [15]
  Plant response rating, Cupgrass, Woolly: 0
Kochia (Kochia scoparia); [12]
  Plant response rating, Kochia: 0
Kochia (Kochia scoparia); [13]
  Plant response rating, Kochia: 0
Kochia (Kochia scoparia); [14]
  Plant response rating, Kochia: 50
Kochia (Kochia scoparia); [15]
  Plant response rating, Kochia: 70
[7]; [12]
  Plant response rating, Morningglory: 0
[7]; [13]
  Plant response rating, Morningglory: 0
[7]; [14]
  Plant response rating, Morningglory: 10
[7]; [15]
  Plant response rating, Morningglory: 50
[8]; [12]
  Plant response rating, Johnsongrass: 0
[8]; [13]
  Plant response rating, Johnsongrass: 0
[8]; [14]
  Plant response rating, Johnsongrass: 0
[8]; [15]
  Plant response rating, Johnsongrass: 5
[9]; [12]
  Plant response rating, Foxtail, Giant: 0
[9]; [13]
  Plant response rating, Foxtail, Giant: 0
[9]; [14]
  Plant response rating, Foxtail, Giant: 0
[9]; [15]
  Plant response rating, Foxtail, Giant: 0
[10]; [12]
  Plant response rating, Crabgrass: 0
[10]; [13]
  Plant response rating, Crabgrass: 0
[10]; [14]
  Plant response rating, Crabgrass: 0
[10]; [15]
  Plant response rating, Crabgrass: 0
[11]; [12]
  Plant response rating, Velvetleaf: 0
[11]; [13]
  Plant response rating, Velvetleaf: 0
[11]; [14]
  Plant response rating, Velvetleaf: 0
[11]; [15]
  Plant response rating, Velvetleaf: 60

## CN(C)N=Cc1nc(C2CC2)nc(N)c1Br [Compound 50]
[1]; Postemergence, 62 g ai/ha
  Cocklebur plant response rating: 40
[1]; Postemergence, 125 g ai/ha
  Cocklebur plant response rating: 40
[1]; [17]
  Plant response rating, Cocklebur: 65
[1]; [18]
  Plant response rating, Cocklebur: 90
[1]; [13]
  Plant response rating, Cocklebur: 70
[1]; [14]
  Plant response rating, Cocklebur: 85
[1]; [15]
  Plant response rating, Cocklebur: 95
[1]; [19]
  Plant response rating, Cocklebur: 95
[2]; Postemergence, 62 g ai/ha
  Nutsedge, Yellow plant response rating: 0
[2]; Postemergence, 125 g ai/ha
  Nutsedge, Yellow plant response rating: 0
[2]; [17]
  Plant response rating, Nutsedge, Yellow: 0
[2]; [18]
  Plant response rating, Nutsedge, Yellow: 0
[2]; [13]
  Plant response rating, Nutsedge, Yellow: 0
[2]; [14]
  Plant response rating, Nutsedge, Yellow: 0
[2]; [15]
  Plant response rating, Nutsedge, Yellow: 0
[2]; [19]
  Plant response rating, Nutsedge, Yellow: 0
[3]; Postemergence, 62 g ai/ha
  Surinam Grass plant response rating: 0
[3]; Postemergence, 125 g ai/ha
  Surinam Grass plant response rating: 0
[3]; [17]
  Plant response rating, Surinam Grass: 0
[3]; [18]
  Plant response rating, Surinam Grass: 60
[3]; [13]
  Plant response rating, Surinam Grass: 0
[3]; [14]
  Plant response rating, Surinam Grass: 15
[3]; [15]
  Plant response rating, Surinam Grass: 65
[3]; [19]
  Plant response rating, Surinam Grass: 85
[4]; Postemergence, 62 g ai/ha
  Pigweed plant response rating: 75
[4]; Postemergence, 125 g ai/ha
  Pigweed plant response rating: 80
[4]; [17]
  Plant response rating, Pigweed: 85
[4]; [18]
  Plant response rating, Pigweed: 95
[4]; [13]
  Plant response rating, Pigweed: 75
[4]; [14]
  Plant response rating, Pigweed: 90
[4]; [15]
  Plant response rating, Pigweed: 95
[4]; [19]
  Plant response rating, Pigweed: 100
[5]; [16]
  Plant response rating, Sunflower: 15
[5]; 125 g ai/ha, scale 0 to 100
  Plant response rating, Sunflower: 55
[5]; 250 g ai/ha, scale 0 to 100
  Plant response rating, Sunflower: 95
[5]; 500 g ai/ha, scale 0 to 100
  Plant response rating, Sunflower: 100
[6]; Postemergence, 62 g ai/ha
  Cupgrass, Woolly plant response rating: 0
[6]; Postemergence, 125 g ai/ha
  Cupgrass, Woolly plant response rating: 0
[6]; [17]
  Plant response rating, Cupgrass, Woolly: 15
[6]; [18]
  Plant response rating, Cupgrass, Woolly: 30
[6]; [13]
  Plant response rating, Cupgrass, Woolly: 0
[6]; [14]
  Plant response rating, Cupgrass, Woolly: 0
[6]; [15]
  Plant response rating, Cupgrass, Woolly: 0
[6]; [19]
  Plant response rating, Cupgrass, Woolly: 40
Kochia (Kochia scoparia); Postemergence, 62 g ai/ha
  Kochia plant response rating: 20
Kochia (Kochia scoparia); Postemergence, 125 g ai/ha
  Kochia plant response rating: 55
Kochia (Kochia scoparia); [17]
  Plant response rating, Kochia: 65
Kochia (Kochia scoparia); [18]
  Plant response rating, Kochia: 95
Kochia (Kochia scoparia); [14]
  Plant response rating, Kochia: 0
Kochia (Kochia scoparia); [15]
  Plant response rating, Kochia: 20
Kochia (Kochia scoparia); [19]
  Plant response rating, Kochia: 90
[7]; Postemergence, 62 g ai/ha
  Morningglory plant response rating: 65
[7]; Postemergence, 125 g ai/ha
  Morningglory plant response rating: 80
[7]; [17]
  Plant response rating, Morningglory: 85
[7]; [18]
  Plant response rating, Morningglory: 95
[7]; [13]
  Plant response rating, Morningglory: 80
[7]; [14]
  Plant response rating, Morningglory: 95
[7]; [15]
  Plant response rating, Morningglory: 95
[7]; [19]
  Plant response rating, Morningglory: 100
[8]; Postemergence, 62 g ai/ha, scale 0 to 100 (0 no effect, 100 complete control)
  Johnsongrass plant response rating: 0
[8]; [18]
  Plant response rating, Johnsongrass: 60
[8]; [13]
  Plant response rating, Johnsongrass: 0
[8]; [14]
  Plant response rating, Johnsongrass: 55
[8]; [15]
  Plant response rating, Johnsongrass: 65
[8]; [19]
  Plant response rating, Johnsongrass: 85
[9]; Postemergence, 62 g ai/ha
  Foxtail, Giant plant response rating: 0
[9]; Postemergence, 125 g ai/ha
  Foxtail, Giant plant response rating: 0
[9]; [17]
  Plant response rating, Foxtail, Giant: 0
[9]; [18]
  Plant response rating, Foxtail, Giant: 20
[9]; [13]
  Plant response rating, Foxtail, Giant: 0
[9]; [14]
  Plant response rating, Foxtail, Giant: 0
[9]; [15]
  Plant response rating, Foxtail, Giant: 0
[9]; [19]
  Plant response rating, Foxtail, Giant: 70
[10]; Postemergence, 62 g ai/ha
  Crabgrass plant response rating: 60
[10]; Postemergence, 125 g ai/ha
  Crabgrass plant response rating: 60
[10]; [17]
  Plant response rating, Crabgrass: 75
[10]; [18]
  Plant response rating, Crabgrass: 80
[10]; [13]
  Plant response rating, Crabgrass: 90
[10]; [14]
  Plant response rating, Crabgrass: 90
[10]; [15]
  Plant response rating, Crabgrass: 95
[10]; [19]
  Plant response rating, Crabgrass: 95
[11]; Postemergence, 62 g ai/ha
  Velvetleaf plant response rating: 50
[11]; Postemergence, 125 g ai/ha
  Velvetleaf plant response rating: 55
[11]; [17]
  Plant response rating, Velvetleaf: 70
[11]; [18]
  Plant response rating, Velvetleaf: 80
[11]; [13]
  Plant response rating, Velvetleaf: 65
[11]; [14]
  Plant response rating, Velvetleaf: 75
[11]; [15]
  Plant response rating, Velvetleaf: 85
[11]; [19]
  Plant response rating, Velvetleaf: 100
